How the values were obtained:
[1] = molecular target: T1, human plasma protein factor Xa (Homo sapiens, UniProt P00742); experiment: Factor Xa IC50 determination, cleavage of paranitroanilide substrate S-2765; format: biochemical; settings: factor Xa 1 nM, S2765 100 μM, Tris buffered saline pH 7.4, 5% DMSO
T1 construct: The human plasma protein factor Xa was purchased from Haematologic Technologies; purchased Haematologic Technologies (Essex Junction, Vt.); host or cells: human plasma
From the text: This example illustrates methods for evaluating the compounds of the invention, along with results obtained for such assays. The in vitro and in vivo human Factor Xa activities of the inventive compounds can be determined by various procedures known in the art, such as a test for their ability to inhibit the activity of human plasma Factor Xa. […] The IC50 value is the concentration (in nM) of the compound required to provide 50% inhibition of human Factor Xa proteolytic activity.
An in vitro assay for detecting and measuring inhibition activity against Factor Xa is as follows:
The substrate S-2765 (Z-D-Arg-Gly-Arg-pNA•HCl) was obtained from Diapharma (West Chester, Ohio).
The human plasma protein factor Xa was purchased from Haematologic Technologies (Essex Junction, Vt.).
All assays, which are performed in 96-well microtiter plates, measure proteolytic activity of the enzyme (factor Xa) by following cleavage of a paranitroanilide peptide substrate. The assay buffer used for proteolytic assays was Tris buffered saline (20 mM Tris, 150 mM NaCl, 5 mM CaCl2, 0.1% Bovine serum albumin (BSA), 5% Dimethly Sulfoxide (DMSO) pH 7.4). In a 96-well microtiter plate, inhibitor was serially diluted to give a range of final concentrations from 0.01 nM to 10 μM. Duplicate sets of wells were assayed and control wells without inhibitor were included. Enzyme was added to each well, (factor Xa concentration=1 nM), the plate was shaken for 5 seconds and then incubated for 5 minutes at room temperature. S2765 was added (100 μM final) and the plate was shaken for 5 seconds (final volume in each well was 200 μl). The degree of substrate hydrolysis was measured at 405 nm on a Thermomax plate reader (Molecular Devices, Sunnyvale, Calif.) for 2 minutes. The initial velocities of substrate cleavage (mOD/min), for each range of inhibitor concentrations, were fitted to a four parameter equation using Softmax data analysis software. The parameter C, derived from the resulting curve-fit, corresponded to the concentration for half maximal inhibition (IC50).

[2] = Pharmacokinetics of Compound 10 in rat (IV and PO), plasma and urine by LC/MS/MS; format: in vivo, male Sprague-Dawley rats; design: AUC/D (dose-normalized AUC(0-inf)): unit not given here; settings: mean ± SD
Method: Compound 10 was used in the rat investigation. An intravenous (IV) and oral (PO) dose of Compound 10 (1.0 and 10 mg/kg, respectively) was prepared. The IV dose was solubilized in 50% PEG300 to yield a final concentration of 1.0 mg/mL with a final pH of 5.13. The PO dose was suspended in 0.5% methylcellulose at a concentration of 2.0 mg/mL with a final pH of 2.70.
A total of six male Sprague-Dawley rats (n=3/dosing group) from Charles River Laboratories (Hollister, Calif.), three male beagle dogs from Marshall BioResources (North Rose, N.Y.) and three male rhesus monkeys were utilized. All surgical procedures in rat (femoral and jugular vein catheterizations) were performed 8 days prior to utilization in the study and rats were acclimated in-house 5 days prior to utilization. Dogs were acclimated in-house at least seven days prior to utilization and were returned to the colony at the completion of the study. Monkey studies were conducted by an off-site contract laboratory.
All animals were fasted from the afternoon prior to study initiation to two hours post-dose (approximately 18 hours). Water was provided ad libitum. All animal rooms were on a 12 hour light-dark cycles (6 A.M. to 6 P.M.). On the morning of experimentation, animals were weighed. Rat femoral and jugular (IV only) vein blood lines were exteriorized and attached to access ports. […]
(§1) All animals were dosed based on individual weights with a PO gavage volume of 5.0 mL/kg and an IV bolus dose volume of 1.0 mL/kg. […] At collection times, urine volume and water consumption was recorded. […]
(§2) Plasma and urine samples were analyzed for Compound 10 concentration using a liquid chromatography tandem mass spectrometry (LC/MS/MS). […] The peak areas of the m/z 411→250 product ion (Compound 10) were measured against those of the m/z 470→342 product ion (N-(2-(5-chloropyridin-2-ylcarbaomoyl)-4-methoxyphenyl)-4-(N,N-dimethylcarbamimidoyl)-2-fluorobenzamide) in positive ion mode. […]
(§3) Sample Compound 10 concentrations below the lower limit of quantitation (LLQ) were reported as <0.500 ng/mL. […]

[3] = Pharmacokinetics of Compound 10 in dog (IV and PO), plasma by LC/MS/MS; format: in vivo, male beagle dogs; design: AUC/D (dose-normalized AUC(0-inf)): unit not given here; settings: mean ± SD
Method: (§4) For the dog and monkey study, Compound 10 was also used. An IV and PO dose of Compound 10 (1.0 and 5.0 mg/kg, respectively) was prepared. The IV dose was formulated similarly to that used in the rat study (50% PEG300 in water). The PO dose was suspended in 0.5% methylcellulose at a concentration of 1.0 mg/mL with a final pH of approximately 3.50.
(§5) A total of six male Sprague-Dawley rats (n=3/dosing group) from Charles River Laboratories (Hollister, Calif.), three male beagle dogs from Marshall BioResources (North Rose, N.Y.) and three male rhesus monkeys were utilized. […]
as §1, §2, §3

[4] = Pharmacokinetics of Compound 10 in monkey (IV and PO), plasma by LC/MS/MS; format: in vivo, male rhesus monkeys; design: AUC/D (dose-normalized AUC(0-inf)): unit not given here; settings: mean ± SD
Method: as §4, §5, §1, §2, §3

T1 sequence (P00742 235-488 limits assumed): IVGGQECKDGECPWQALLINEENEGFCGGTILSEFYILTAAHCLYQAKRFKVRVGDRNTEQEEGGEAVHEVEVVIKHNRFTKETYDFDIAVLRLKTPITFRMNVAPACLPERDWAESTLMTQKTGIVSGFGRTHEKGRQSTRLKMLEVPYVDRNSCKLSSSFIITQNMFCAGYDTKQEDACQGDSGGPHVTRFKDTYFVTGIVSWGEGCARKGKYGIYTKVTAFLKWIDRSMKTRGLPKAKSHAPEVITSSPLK
T1 sequence (P00742 41-179 partner limits assumed): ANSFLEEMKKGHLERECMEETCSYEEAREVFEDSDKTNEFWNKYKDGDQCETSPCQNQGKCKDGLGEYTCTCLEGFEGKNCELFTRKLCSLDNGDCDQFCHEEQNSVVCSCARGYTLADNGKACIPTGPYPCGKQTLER

IC50 [1] | SMILES | further results
≤ 100 nM | C#Cc1ccc(C(=O)NCc2cn(-c3ccc(-n4ccccc4=O)cc3)cn2)s1 [Compound 32, 5-Ethynyl-N-((1-(4-(2-oxopyridin-1(2H)-yl)phenyl)-1H-imidazol-4-yl)methyl)thiophene-2-carboxamide] | –
≤ 100 nM | NC(=O)/N=c1\ccccn1-c1ccc(-n2cnc(CNC(=O)c3ccc(Cl)s3)c2)cc1 [Compound 61, N-((1-(4-(2-(carbamoylimino)pyridin-1(2H)-yl)phenyl)-1H-imidazol-4-yl)methyl)-5-chlorothiophene-2-carboxamide] | –
≥ 500 nM | Cc1c(CNC(=O)c2ccc(Cl)s2)ncn1-c1ccc(-n2ccccc2=O)cc1 [Compound 63, 5-Chloro-N-((5-methyl-1-(4-(2-oxopyridin-1(2H)-yl)phenyl)-1H-imidazol-4-yl)methyl)thiophene-2-carboxamide] | –
≤ 100 nM | O=C(NCc1cn(-c2ccc(-n3ccccc3=O)cc2N2CCSCC2)cn1)c1ccc(Cl)s1 [Compound 24, 5-Chloro-N-((1-(4-(2-oxopyridin-1(2H)-yl)-2-thiomorpholinophenyl)-1H-imidazol-4-yl)methyl)thiophene-2-carboxamide] | –
≥ 500 nM | Cn1c(Cl)ccc1C(=O)NCc1cn(-c2ccc(-n3ccccc3=O)cc2)cn1 [Compound 38, 5-chloro-1-methyl-N-((1-(4-(2-oxopyridin-1(2H)-yl)phenyl)-1H-imidazol-4-yl)methyl)-1H-pyrrole-2-carboxamide] | –
≤ 100 nM | C[S+]([O-])c1cc(-n2ccccc2=O)ccc1-n1cnc(CNC(=O)c2ccc(Cl)s2)c1 (stereo not drawn) [Compound 23, 5-chloro-N-((1-(2-(methylsulfinyl)-4-(2-oxopyridin-1(2H)-yl)phenyl)-1H-imidazol-4-yl)methyl)thiophene-2-carboxamide] | –
≥ 500 nM | COC(=O)c1cc(-n2ccccc2=O)ccc1-n1cnc(CNC(=O)c2ccc(Cl)s2)c1 [Compound 29, 5-Chloro-N-((1-(2-methoxycarbonyl-4-(2-oxopyridin-1(2H)-yl)phenyl)-1H-imidazol-4-yl)methyl)thiophene-2-carboxamide] | –
≥ 500 nM | Cn1cc(Cl)cc1C(=O)NCc1cn(-c2ccc(-n3ccccc3=O)cc2)cn1 [Compound 37, 4-chloro-1-methyl-N-((1-(4-(2-oxopyridin-1(2H)-yl)phenyl)-1H-imidazol-4-yl)methyl)-1H-pyrrole-2-carboxamide] | –

The next lines start with the compound.

SMILES | IC50 [1] | further results
O=C(NCc1cn(-c2ccc(-n3ccccc3=O)cc2)cn1)c1ccc(Cl)s1 [Compound 10, 5-Chloro-N-((1-(4-(2-oxopyridin-1(2H)-yl)phenyl)-1H-imidazol-4-yl)methyl)thiophene-2-carboxamide] | ≤ 100 nM | Dose excreted unchanged in urine ([2]; intravenous, 1 mg/kg, urine to 24 hours post-dose): 0.248 ± 0.019%; bioavailability ([2]; male, Sprague-Dawley, plasma, oral 10 mg/kg vs intravenous 1 mg/kg, read-out: F (absolute bioavailability)): 127 ± 23.1%; AUC/D (dose-normalized AUC(0-inf)) ([2]; oral, 10 mg/kg, n=3): 6859 ± 1249; bioavailability ([3]; male, beagle, plasma, oral 5 mg/kg vs intravenous 1 mg/kg, read-out: F (absolute bioavailability)): 68.5 ± 15.5%; AUC/D (dose-normalized AUC(0-inf)) ([3]; oral, 5 mg/kg, n=3): 1095 ± 295; bioavailability ([4]; male, rhesus, rhesus monkey, plasma, oral 5 mg/kg vs intravenous 1 mg/kg, read-out: F (absolute bioavailability)): 71.6 ± 18.1%; AUC/D (dose-normalized AUC(0-inf)) ([4]; oral, 5 mg/kg, n=3): 8430 ± 3449
CS(=O)(=O)c1nc(CNC(=O)c2ccc(Cl)s2)cn1-c1ccc(-n2ccccc2=O)cc1 [Compound 56, 5-chloro-N-((2-(methylsulfonyl)-1-(4-(2-oxopyridin-1(2H)-yl)phenyl)-1H-imidazol-4-yl)methyl)thiophene-2-carboxamide] | ≤ 100 nM | –
O=C(NCc1cn(-c2ccc(-n3ccnc(O)c3=O)cc2)cn1)c1ccc(Cl)s1 [Compound 58, 5-chloro-N-((1-(4-(3-hydroxy-2-oxopyrazin-1(2H)-yl)phenyl)-1H-imidazol-4-yl)methyl)thiophene-2-carboxamide] | ≤ 100 nM | –
Cn1c(=O)ccn(-c2ccc(-n3cnc(CNC(=O)c4ccc(Cl)s4)c3)cc2)c1=O [Compound 49, 5-chloro-N-((1-(4-(3-methyl-2,4-dioxo-3,4-dihydropyrimidin-1(2H)-yl)phenyl)-1H-imidazol-4-yl)methyl)thiophene-2-carboxamide] | ≤ 100 nM | –
Cc1cccc(=O)n1-c1ccc(-n2cnc(CNC(=O)c3ccc(Cl)s3)c2)cc1 [Compound 14, 5-chloro-N-((1-(4-(6-methyl-2-oxopyridin-1(2H)-yl)phenyl)-1H-imidazol-4-yl)methyl)thiophene-2-carboxamide] | ≤ 100 nM | –
Cc1nc(CNC(=O)c2ccc(Cl)s2)cn1-c1ccc(-n2ccccc2=O)cc1 [Compound 62, 5-Chloro-N-((2-methyl-1-(4-(2-oxopyridin-1(2H)-yl)phenyl)-1H-imidazol-4-yl)methyl)thiophene-2-carboxamide] | ≤ 100 nM | –
